A word on the EC50: it is the concentration at which the effect is half-maximal.

The values below come from PMC5471267, “Novel regulatory mechanism of serine biosynthesis associated with 3-phosphoglycerate dehydrogenase in Arabidopsis thaliana” (Scientific Reports, 2017).

Molecules are shown by their SMILES.

What all share (assay): 3-PGA oxidation, NADH absorbance at […] nm; Hill fit
The test system of one assay is T1, AtPGDH-N1/C2.
T1 construct: gene PGDH1; one fused polypeptide: N-terminal half (catalytic domain) of AtPGDH1 + C-terminal half (ASB and ACT domains) of AtPGDH2; tag-free, E. coli; mainly homotetramer, also multimers up to 20 subunits
It counts as biochemical, Arabidopsis thaliana. The conditions noted are these: activator, cooperative; 10 mM 3-PGA, 1 mM NAD+, 0.1 M NaCl, pH 9.0, 25 °C.

For another assay, the target named is T2, AtPGDH3 (Arabidopsis thaliana, UniProt Q9LT69).
T2 construct: gene PGDH3; mature enzyme, predicted chloroplast transit peptide removed; eXact tag cleaved (tag-free); E. coli BL21 CodonPlus(DE3)-RIL; homotetramer
T2 sequence (Q9LT69 44-588 limits assumed): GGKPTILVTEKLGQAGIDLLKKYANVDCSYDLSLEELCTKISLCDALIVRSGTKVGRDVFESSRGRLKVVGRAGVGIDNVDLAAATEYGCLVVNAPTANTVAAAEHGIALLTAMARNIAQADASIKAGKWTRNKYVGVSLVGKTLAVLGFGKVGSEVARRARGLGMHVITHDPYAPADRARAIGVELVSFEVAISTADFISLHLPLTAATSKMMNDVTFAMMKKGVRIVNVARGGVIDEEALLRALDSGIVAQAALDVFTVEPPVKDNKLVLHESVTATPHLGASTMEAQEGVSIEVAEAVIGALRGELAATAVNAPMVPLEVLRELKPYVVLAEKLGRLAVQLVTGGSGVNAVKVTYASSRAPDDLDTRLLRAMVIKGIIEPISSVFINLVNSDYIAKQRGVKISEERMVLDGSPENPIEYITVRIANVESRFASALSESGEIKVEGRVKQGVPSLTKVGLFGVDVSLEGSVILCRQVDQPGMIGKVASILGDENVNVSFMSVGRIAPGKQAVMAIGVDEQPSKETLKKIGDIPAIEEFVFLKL
In kind it is biochemical.

The next assay relates to T3, AtPGDH-N2/C1.
T3 construct: gene PGDH2; one fused polypeptide: N-terminal half (catalytic domain) of AtPGDH2 + C-terminal half (ASB and ACT domains) of AtPGDH1; tag-free, E. coli; homotetramer
It counts as biochemical, Arabidopsis thaliana. The conditions noted are these: activator, cooperative; 10 mM 3-PGA, 1 mM NAD+, 0.1 M NaCl, pH 9.0, 25 °C.

In another assay the target is T4, AtPGDH1 (Arabidopsis thaliana, UniProt O49485).
T4 construct: gene PGDH1; mature enzyme, predicted chloroplast transit peptide removed; eXact tag cleaved (tag-free); E. coli BL21 CodonPlus(DE3)-RIL; homotetramer
T4 sequence (O49485 59-603 limits assumed): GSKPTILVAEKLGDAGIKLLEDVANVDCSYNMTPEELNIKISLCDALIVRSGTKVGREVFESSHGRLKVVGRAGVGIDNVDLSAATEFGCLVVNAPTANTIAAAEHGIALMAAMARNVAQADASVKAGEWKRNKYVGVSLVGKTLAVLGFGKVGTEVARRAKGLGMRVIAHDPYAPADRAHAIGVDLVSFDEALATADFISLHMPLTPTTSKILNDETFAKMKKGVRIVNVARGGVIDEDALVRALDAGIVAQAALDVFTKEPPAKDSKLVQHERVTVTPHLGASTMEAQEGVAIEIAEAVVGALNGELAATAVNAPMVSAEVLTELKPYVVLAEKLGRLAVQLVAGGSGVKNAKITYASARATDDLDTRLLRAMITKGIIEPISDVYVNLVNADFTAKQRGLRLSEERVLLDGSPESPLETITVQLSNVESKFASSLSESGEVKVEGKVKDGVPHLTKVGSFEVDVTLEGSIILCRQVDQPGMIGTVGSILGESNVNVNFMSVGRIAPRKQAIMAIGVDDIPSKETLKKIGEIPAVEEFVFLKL
In kind it is biochemical.

As for `C[C@H](N)C(=O)O` [L-alanine], the EC50 came to 3.7 ± 0.1 mM in the assay with AtPGDH-N1/C2, 4.9 ± 0.2 mM on AtPGDH3, 2.6 ± 0.1 mM in the assay on AtPGDH-N2/C1 and 5.3 ± 0.2 mM at AtPGDH1.
